Experimental findings from publication PMC10574185, “Encapsulation and Biological Activity of Hesperetin Derivatives with HP-β-CD” (Molecules, 2023) are described below.

Data set [1] deals with HaCaT cells. The experiment in a line: MTT cytotoxicity assay on HaCaT keratinocytes. In kind it is cell-based, human. On the procedure: HaCaT keratinocyte cells were exposed to chemical compounds at nine different concentrations (from 3.9 to 995.6 µg/mL) in four replicates of each concentration for 24 and 48 h.
All compounds were dissolved in sterile DMSO (Merck Life Science, Warsaw, Poland) and were sterile-filtered with 0.22 µm pore size sterile disposable syringe filters.
HaCaT cell line (the normal immortalised human keratinocytes) used in the study derived from the 35th passage (the original material created by Prof. Dr. Petra Boukamp and Dr. Norbert Fusenig) was purchased from Cell Line Service GmbH (Eppelheim, Germany). The cells were cultured and propagated as described previously.
The cytotoxicity was assessed with MTT assay according to methodology applied previously.
The following final concentrations (in four replicates per experiment) of the test compounds were tested (µg/mL): 3.9; 7.8; 15.6; 31.1; 62.2; 124.5; 248.9; 497.8, and 995.6. […] Three independent experiments were conducted. The vehicle was cells in the culture medium. The assay was conducted for 24 h and 48 h.

For data set [2], the system named is Listeria monocytogenes ATCC 19111. The experiment in a line: Antagonistic activity, diffusion-well method. The data set is classed as cell-based. The conditions noted are these: ATCC19111, compounds at 2.5 µM, wells 8 mm, 37 °C, 18 h. On the procedure: (§1) The antimicrobial activity of the HESP, ligands ([…], and HTSC), and complexes with HP-β-CD were tested against Gram-positive bacteria (Listeria monocytogenes ATCC 19111, Listeria monocytogenes ATCC 19112, Listeria monocytogenes ATCC 19115, Staphylococcus aureus ATCC 29737, Staphylococcus aureus ATCC 25923, Staphylococcus aureus ATCC 27734) and Gram-negative bacteria (Escherichia coli ATCC 11303, Escherichia coli ATCC 35218, Salmonella Typhimurium, ATCC 14028, Salmonella Enteritidis ATCC 13076, Salmonella Choleraesuis ATCC 7001). The strains were activated from cryobanks by passaging them twice onto a Nutrient Broth (Merck, Darmstadt, Germany). All bacteria were grown for 24 h at 37 °C. Antagonistic activity of the following chemical compounds: […], and […] determined by the diffusion-well method. The test strains were plated on Mueller-Hinton Agar (Merck, Darmstadt, Germany) in the form of a surface layer of bacteria according to the procedures recommended by the European Committee on Antimicrobial Susceptibility Testing EUCAST [74]. The detailed methodology was described in the paper by Sykuła et al.. Bacterial inoculum was prepared from an overnight solid culture. The inoculum density was 1-2 × 10^8 CFU/mL, which corresponds to a McFarland standard of 0.5. The samples of the test compounds were dissolved in 5% (w/w) DMSO to obtain a concentration of 500 μM, and were sterilized using filtration (filter pore width 0.2 μm; (Sartorius AG, Gottingen, Germany). The bacteria inoculum test culture (0.1 mL) smear conducted was on sterile Mueller-Hinton Agar (Merck, Darmstadt, Germany) plates. […] A total of 50 μL of the prepared solutions of the tested compounds at a concentration of 500 μM were added to the wells. The plates prepared in this way were incubated at 37 °C for 18 h. After this time, zones of growth inhibition were read and the result was given in mm. The experiment was carried out in two independent repetitions. The results were expressed in average values and standard deviation. The results were analyzed using a one-way ANOVA and post-hoc Tukey's test.

Data set [3] deals with Listeria monocytogenes ATCC 19112. Description: Antagonistic activity, diffusion-well method. In kind it is cell-based. The conditions noted are these: ATCC19112, compounds at 2.5 µM, wells 8 mm, 37 °C, 18 h. On the procedure:
as §1

Data set [4] relates to Listeria monocytogenes ATCC 19115. The experiment in a line: Antagonistic activity, diffusion-well method. The data set is classed as cell-based. The conditions noted are these: ATCC19115, compounds at 2.5 µM, wells 8 mm, 37 °C, 18 h. On the procedure: as §1
For data set [5], the system named is Salmonella Choleraesuis ATCC 7001. The experiment in a line: Antagonistic activity, diffusion-well method. In kind it is cell-based. The conditions noted are these: Salmonella enterica, compounds at 2.5 µM, wells 8 mm, 37 °C, 18 h. On the procedure: as §1
The subject of data set [6] is Salmonella Enteritidis ATCC 13076. The experiment in a line: Antagonistic activity, diffusion-well method. The data set is classed as cell-based. The conditions noted are these: Salmonella enterica, compounds at 2.5 µM, wells 8 mm, 37 °C, 18 h. On the procedure: as §1
Data set [7] concerns Salmonella Typhimurium ATCC 14028. Description: Antagonistic activity, diffusion-well method. The settings on record: Salmonella enterica, compounds at 2.5 µM, wells 8 mm, 37 °C, 18 h. In kind it is cell-based. On the procedure: as §1
Data set [8] deals with Staphylococcus aureus ATCC 27734. The experiment in a line: Antagonistic activity, diffusion-well method. In kind it is cell-based. The settings on record: ATCC27734, compounds at 2.5 µM, wells 8 mm, 37 °C, 18 h. On the procedure:
as §1

The subject of data set [9] is Escherichia coli ATCC 11303. The experiment in a line: Minimal inhibition concentration (dilution + diffusion-well). In kind it is cell-based. The settings on record: ATCC11303, 37 °C, 18 h. On the procedure: (§2) The MIC was performed for compounds and strains sensitive to their action in the antagonistic test. Minimum inhibitory concentration was determined by combining the dilution method with the diffusion-well method. Test compounds at a concentration of 500 μM were prepared in 5% (w/w) DMSO. Surface layer of microorganisms, against which antagonistic activity was noted, were prepared in the same way as for the antagonistic test. Then, two-fold sequential dilutions of the test compounds in the range of 500 µM to 62.5 µM were prepared. Wells with a diameter of 8 mm cut in the Mueller–Hinton Agar (Merck, Darmstadt, Germany) with the test strain were added with 50 µL of the prepared dilutions, which corresponded to the following concentrations of the tested compounds: […], 1.25 mM, 0.625 mM, and […]. Petri dishes prepared in this way were incubated at 37 °C for 18 h. After a given time, the MIC value was read. The MIC concentration expressed in µM was the first concentration of the tested compounds at which growth inhibition of the test strain was observed.

Data set [10] concerns Staphylococcus aureus ATCC 25923. The data set is described as above. The data set is classed as cell-based. The conditions noted are these: ATCC25923, 37 °C, 18 h. On the procedure:
as §2

The test system of data set [11] is Staphylococcus aureus ATCC 29737. The data set is described as above. In kind it is cell-based. The settings on record: ATCC29737, 37 °C, 18 h. On the procedure: as §2

With `CC(O)COC[C@H]1O[C@@H]2O[C@H]3[C@H](O)[C@@H](O)[C@@H](O[C@H]4[C@H](O)[C@@H](O)[C@@H](O[C@H]5[C@H](O)[C@@H](O)[C@@H](O[C@H]6[C@H](O)[C@@H](O)[C@@H](O[C@H]7[C@H](O)[C@@H](O)[C@@H](O[C@H]8[C@H](O)[C@@H](O)[C@@H](O[C@H]1[C@H](O)[C@H]2O)O[C@@H]8COCC(C)O)O[C@@H]7COCC(C)O)O[C@@H]6COCC(C)O)O[C@@H]5COCC(C)O)O[C@@H]4COCC(C)O)O[C@@H]3COCC(C)O` (stereo partly drawn) [HP-β-CD, (2-Hydroxypropyl)-β-cyclodextrin], the “cytotoxicity (maximum over tested concentrations)” value in [1] (24 h, 3.9-995.6 µg/mL) is “up to 6.6% ± 7.2”. Besides, the results for the “Non-cytotoxic concentration (IC0)” value in [1] (24 h exposure) and in data set [1] (48 h exposure) were at most 31.1 µg/mL and at most 3.9 µg/mL, respectively. Also, the zone of inhibition at 2.5 µM in data set [2], in data set [3], in data set [4], in data set [5], in [6] and in [7] was 0 mm throughout. Besides, the zone of inhibition at 2.5 µM in data set [8] came out at 0 mm. Also, the MIC in [9], in [10] and in data set [11] was 2.5 µM throughout.
